Measured values as given in publication PMC5774622 (Biochimie, 2017).
Ends that are not written are not given here.

What was measured:
PVIVIT peptide = settings: cited from earlier work
[1] = target: NFAT PRIEIT peptide (Homo sapiens); settings: cited from earlier work
CN [2] = target: CN (Rattus norvegicus, UniProt P63100+P63329); assay: CN phosphatase colorimetric assay with RII phosphopeptide as substrate; assay type: biochemical
[3] = test system: interaction between GST-CNA and GFP-TFEB; assay: GST pull-down of GFP-TFEB by GST-CNA; assay type: binding; settings: quercetin 50 μM and 100 μM; GFP-TFEB transfected in HeLa cells
[4] = test system: TFEB nuclear translocation; settings: cited from earlier work
[5] = test system: CNA in mouse brain lysates; assay: GST pull-down of CNA from mouse brain lysates; assay type: binding; settings: addition of synthetic peptide to pull-down
CN [6] = settings: kinetics comparable to intact RII; cited from earlier work
purified recombinant CN = purified recombinant CN (Rattus norvegicus, UniProt P63100+P63329); assay: Fluorescence polarization
purified recombinant CN, sequence (P63100 whole entry, other chains not shown): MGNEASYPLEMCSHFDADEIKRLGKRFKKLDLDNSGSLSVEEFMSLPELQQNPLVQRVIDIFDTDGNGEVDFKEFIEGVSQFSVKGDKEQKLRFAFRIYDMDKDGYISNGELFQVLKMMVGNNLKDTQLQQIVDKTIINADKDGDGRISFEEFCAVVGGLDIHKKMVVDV

For Calcineurin (from UniProt Q08209), the Kd (PVIVIT peptide) is given as 0.5 µM and the Kd [1] is given as 25 µM.

Work on ESILLVPPTWPKPLV [NFATc2-ILLVP] yielded an IC50 (CN [2]) of 130 µM.

In the case of O=c1c(O)c(-c2ccc(O)c(O)c2)oc2cc(O)cc(O)c12 [quercetin], the “effect on interaction between GST-CNA and GFP-TFEB” value [3] is reported as “blocks the interaction”.

For C=CC[C@@H]1/C=C(\C)C[C@H](C)C[C@H](OC)[C@H]2O[C@@](O)(C(=O)C(=O)N3CCCC[C@H]3C(=O)O[C@H](/C(C)=C/[C@@H]3CC[C@@H](O)[C@H](OC)C3)[C@H](C)[C@@H](O)CC1=O)[C@H](C)C[C@@H]2OC [FK506], the “TFEB nuclear translocation during starvation” value [4] is given as “reduce TFEB nuclear translocation”.

For QSYLENPTSYHLQQS [TFEB-YLENP], the “effect on interaction between GST-TFEB-YLENP and CNA” value [5] was “greatly inhibited”.

GSSHLAPPNPDKQFL [RCAN1-HLAPP] gave an IC50 (CN [2]) of 131 µM.

For “DLDVPIPGRFDRRVpSVAAE [RII phosphopeptide]”, the “Vmax of dephosphorylation by CN” value (CN [6]) is listed as 1.7 µmol/min/mg.

CC(C)C[C@H](NC(=O)[C@H](Cc1ccc(O)cc1)NC(=O)[C@H](CCC(N)=O)NC(=O)[C@@H](N)CC(=O)O)C(=O)N[C@@H](C)C(=O)N[C@H](C(=O)N1CCC[C@H]1C(=O)N[C@@H](CCC(N)=O)C(=O)N[C@@H](Cc1c[nH]cn1)C(=O)N1CCC[C@H]1C(=O)N[C@@H](Cc1ccc(O)cc1)C(=O)N[C@@H](CCC(N)=O)C(=O)N[C@@H](Cc1c[nH]c2ccccc12)C(=O)N[C@@H](C)C(=O)N[C@@H](CCCCN)C(=O)O)C(C)C [NFATc1-YLAVP] gave an IC50 (purified recombinant CN) of ~5 µM.
